The text below walks through data of PMC10721329, “Quisinostat is a brain-penetrant radiosensitizer in glioblastoma” (JCI Insight, 2023).

Where “and” joins values, the source holds several entries; their conditions need not be identical. Equal values may be shown once.

Data set [1] in a line: Stability in human plasma at 37°C. Particulars: for %stability in human plasma, mean / stability in human plasma, [QST], % of control: 37 C; for %stability in human plasma, mean: mean of 3; for stability in human plasma, [QST], % of control: single data points. The format is in vitro ADME. How it is done:
Hydroxamic acid–based compounds have been reported to display poor stability and high plasma clearance due to the presence of arylesterases and carboxylesterases in rodent blood ([34]). Therefore, we measured the stability of QST in mouse plasma and brain to determine whether drug degradation occurred during our sample preparations and equilibrium dialyses for the determination of unbound drug level (performed at 37°C). […] QST degradation was also observed in mouse brain homogenate (Figure 6B). However, perfusion of mice before brain collection prevented rapid drug degradation in the brain matrix. […] Degradation of QST can also be constrained if plasma and brain samples are processed at 4°C (Supplemental Figure 4A). All subsequent sample preparations were therefore performed on ice-cold baths to avoid degradation of QST in our PK analyses. […] The observed stability is probably due to the absence of esterases in human matrices, which are responsible for degradation of QST ([34]). Because we employed QST in several in vitro studies (Figures 1–4), the stability of the molecule was also tested in the cell media used to culture GSCs (neurobasal medium; see Methods).
Stability Study in Mouse Plasma, Mouse Brain, Human Plasma, Human Brain, and Neural […]
The stability of QST was determined in BALB/c mouse plasma, male nude athymic perfused and nonperfused mouse brain homogenate (1:9 w/v of PBS; pH 7.4), human brain (obtained from VRL Eurofins) homogenate (1:4 w/v of PBS; pH 7.4), pooled human plasma (Innovative Research), and neurobasal media. QST stock solutions (1 mM) were prepared in acetonitrile, subsequently diluted in a 40% methanol mixture, and added t o the matrices to make final concentrations of 100 nM or 10 nM. Then 50 or 30 µL of either plasma or brain homogenate containing QST were aliquoted into 1.5-mL microcentrifuge tubes (Eppendorf) and were incubated at either 4 °C or 37 °C for 0, 2, 4, 6, 12, or 24 hours (n = 3 at each time point). […]
Plasma and brain […]
homogenate samples were stored at −80 °C until LC-MS/MS analysis. […]

In the next data set the test system is orthotopic GB126 tumors. The data set can be described thus: End-stage immunoblot of orthotopic GB126 tumors (H3K9/14ac, H3K27ac). It is filed as in vivo, athymic nude mice. As to conditions: endpoint PDX tumors, individual mice. How it is done:
All mice included in the survival study were processed for end-point PK and PD analyses once moribund. Plasma, tumor, and contralateral brain tissues were harvested 3 hours after dosing with 10 mg/kg QST, allowing for direct comparison of long-term treatment with the PK-PD data collected from acute (1-week) treatment with QST or combination therapy (Figure 8A). […] There were no significant differences in total or unbound drug concentrations in tumor or brain tissue between the monotherapy or combination therapy cohorts (Figure 8, E and F). Immunoblot analysis of dissected tumor samples confirmed that QST induced substantial histone H3 hyperacetylation in brain tumors, compared with untreated animals, consistent with an in vivo on-target effect (Figure 9, A and B). […]
4). Protein concentrations from whole-cell extracts were determined using the Bradford Protein Assay (ThermoFisher Scientific). Equal amounts of protein (10-40 μg/lane) were loaded onto 10% or 12.5% sodium dodecyl sulfate–polyacrylamide gel electrophoresis gels and transferred to a polyvinylidene fluoride membrane (Millipore-Sigma).
Cellular protein from frozen tissue of non–tumor-bearing mouse brains, tumor-bearing mouse brains, and flank tumors were homogenized in a prechilled glass tissue grinder (VWR) with RIPA lysis buffer containing protease and phosphatase inhibitors (ThermoFisher Scientific), with 500 uL of RIPA buffer for 10 mg of tissue. Once homogenized, the tissue lysates were kept on ice for 30 minutes and vortexed every 10 minutes. The samples were then centrifuged at 15,000 rpm for 10 minutes at 4 °C to collect the protein lysates.
Membranes were blocked with 5% nonfat milk for 1 hour at room temperature and incubated overnight with primary antibody at 4 °C. Primary antibodies used were rabbit anti-p21 […]
Signaling Technologies, 9677), mouse anti-Histone H3 (1:1000, Cell Signaling 14269), mouse
A general note: In western blotting, separated proteins are transferred to a membrane and probed.

Take `Cn1cc(CNCC2CCN(c3ncc(C(=O)NO)cn3)CC2)c2ccccc21` [QST, quisinostat]: the “%stability in human plasma, mean” value was 100.0 % of control in data set [1] (10 nM, 0 hrs); 99.5 % of control in data set [1] (10 nM, 6 hrs); 97.7 % of control in data set [1] (10 nM, 24 hrs); 100.0 % of control in data set [1] (100 nM, 0 hrs); 102.1 % of control in data set [1] (100 nM, 2 hrs); 103.6 % of control in data set [1] (100 nM, 6 hrs). The “%stability in human plasma, mean” value in data set [1] (100 nM, 24 hrs) is 99.0 % of control. Besides, the “stability in human plasma, [QST], % of control” value in data set [1] (10 nM, 0 hrs) was 96.2 % of control and 101.9 % of control; in data set [1] (10 nM, 2 hrs), 98.7 % of control and 101.4 % of control and 99.6 % of control; in data set [1] (10 nM, 6 hrs) it was 100.4 % of control and 102 % of control and 96.1 % of control; in data set [1] (10 nM, 24 hrs), 93.7 % of control and 94.6 % of control and 104.9 % of control; in data set [1] (100 nM, 0 hrs) it was 96.3 % of control and 100 % of control and 103.7 % of control; in data set [1] (100 nM, 2 hrs), 105.4 % of control and 102.2 % of control and 98.8 % of control. The “stability in human plasma, [QST], % of control” value was 105.9 % of control and 102.8 % of control and 102 % of control in data set [1] (100 nM, 6 hrs); 101.6 % of control and 97 % of control and 98.2 % of control in data set [1] (100 nM, 24 hrs). In data set [1] (37°C), the “stability in human plasma” value is reported as “completely stable”. Also, the “H3K9/14ac levels normalized to B-actin” value in the data set on orthotopic GB126 tumors (QST + IR) was 7.331 fold change and 7.39 fold change and 6.951 fold change; with orthotopic GB126 tumors (QST), 5.4 fold change and 6.4803 fold change and 5.818 fold change. In addition, the “H3K27ac levels normalized to B-actin” value in the data set on orthotopic GB126 tumors (QST + IR) was 1.842 fold change and 4.36 fold change and 3.819 fold change; with orthotopic GB126 tumors (QST) it was 4.65 fold change and 3.97 fold change and 2.306 fold change.
